Patent US20100183600A1, “RAF Inhibitors and Their Uses” (ARQULE, INC., priority 2008, published 2010)
Where a name gives a salt, the structure may show the parent alone.

Assays:
DLD-1 = test: Cell growth inhibition assay (MTS); assay type: cell-based; conditions: Homo sapiens; DLD-1, 72 hours
Procedure: (§1) Compounds of the present invention have been tested for activity against a variety of cancer cell lines. The ability of compounds to inhibit cell growth in this assay is correlated with the reduction of dehydrogenase enzyme activity found in metabolically active cells.
(§2) Materials: A large variety of cancer cells from ATCC were maintained at 37° C., 5% CO2 in DMEM media supplemented with 10% fetal bovine serum, penicillin/streptomycin and fungizone (Invitrogen). NCM460 (Incell), a normal colon epithelial cell line, and human mammary epithelial cells (Cambrex) were maintained at 37° C., 5% CO2 in DMEM and HEBM media (Cambrex), respectively.
(§3) Methods: Test compounds were dissolved and diluted to 300× in DMSO then diluted 1:40 in DMEM. Cells were seeded into 96-well tissue culture plates at 1-5×10^3 per well and cultured at 37° C. for 24 h. Cells were incubated with test compounds for 72 hours followed by incubation with tetrazolium compound (3-(4,5-dimethylthiazol-2-yl)-5-(3-carboxymethoxyphenyl)-2-(4-sulfophenyl)-2H-tetrazolium, inner salt; MTS) and the electron coupling reagent, phenazine methosulfate (PMS) for 4 hr. […] The measurement of the absorbance of the formazan was assessed using an ENVISION™ (Perkin Elmer) microplate reader at 492 nm. The calculated IC50 value is the concentration of the test compound that causes a 50% decrease in the absorbance.

WM-266-4 = test: Cell growth inhibition assay (MTS); assay type: cell-based; conditions: Homo sapiens; WM-266-4, 72 hours
Procedure: as §1, §2, §3

SK-MEL-2 = test: Cell growth inhibition assay (MTS); assay type: cell-based; conditions: Homo sapiens; SK-MEL-2, 72 hours
Procedure: as §1, §2, §3

A375 = test: Cell growth inhibition assay (MTS); assay type: cell-based; conditions: Homo sapiens, A-375, 72 h, A375, 72 hours
Procedure: as §1, §2, §3

RKO = test: Cell growth inhibition assay (MTS); assay type: cell-based; conditions: Homo sapiens, 72 hours
Procedure: as §1, §2, §3

SK-MEL-28 = test: Cell growth inhibition assay (MTS); assay type: cell-based; conditions: Homo sapiens; SK-MEL-28, 72 hours
Procedure: as §1, §2, §3

p-Erk (A375) = test: Cell-based phosphorylation assay with electroblotting readout; design: species or system human; conditions: Homo sapiens, A-375; A375 cells, 1 hr
Source text: Compounds of the present invention have been screened for their ability to inhibit all isoforms, both wild-type and mutant of RAF kinases (A-RAF, B-RAF and C-RAF) in general, and the mutant B-RAF (V600E) in particular in human cancer cells. A375 is a human melanoma cell line that harbors the most common B-RAF mutation-V600E found in human cancers. The ability of compounds to inhibit RAF kinases in this assay is correlated with the reduction of MEK and ERK phosphorylation, and is therefore a direct indicator of potential in vivo therapeutic activity.
Materials: A375 cells from ATCC were maintained at 37° C., 5% CO2 in DMEM media supplemented with 10% fetal bovine serum, penicillin/streptomycin and fungizone. (Invitrogen)
Methods: Test compounds were dissolved and diluted 1:1000 in DMSO. A375 cells were seeded in six-well tissue culture plates at 5-8×10^5 per well and cultured at 37° C. for 24 h. Cells were incubated with compounds for one hour before being lysed in EPage™ loading buffer (Invitrogen). Lysates were electrophoresed on 8% EPage™ gels and transferred to polyvinylidene difluoride membranes. After incubations with primary and secondary antibodies, the immunostained proteins were detected and quantitated by an Odyssey infrared imager (LI-COR). Analysis was performed by non-linear regression to generate a dose response curve. The calculated IC50 value was the concentration of the test compound that causes a 50% decrease in phospho-MEK and phospho-ERK levels. The primary antibodies used were anti-MEK (Stressgen), anti-ERK (BD Biosciences), anti-phospho-ERK and anti-phospho-MEK (Cell Signaling). The secondary antibodies used were IRDYE800 anti-rabbit, IRDYE 800 anti-mouse (Rockland), AlexaFluor680 anti-mouse and AlexaFluoro680 anti-rabbit (Invitrogen).
A375 cells were treated with 0, 12, 37, 111, 333 and 1000 nM of indicated compounds for 1 hr. The levels of Phospho-ERK and total-ERK were accessed by immunoblotting.

mutant B-RAF = target: T1, mutant B-RAF (Homo sapiens, UniProt P15056, V600E); test: Measurement of RAF activity (MEK-1 phosphorylation); assay type: biochemical; conditions: 50 μM ATP, MEK-1 substrate; read-out: Mut-B-Raf IC50
T1 construct: purchased Upstate (Charlottesville, Va.)
Procedure: Materials: The RAF kinases and the anti-phospho MEK1/2 antibody were from Upstate (Charlottesville, Va.). The RAF substrate used was full length N-terminal GST-MEK-1, which was expressed in E. coli and purified in-house by HPLC. All proteins were aliquoted and stored at −80° C. Superblock™ in phosphate buffered saline (PBS) blocking reagent was form Pierce (cat. #37515). ATP was from Roche (cat. # 19035722). Alkaline Phosphatase-tagged goat anti-rabbit antibody was from Pierce (cat. # 31340).
Methods: All RAF biochemical assays were performed using an assay buffer containing 20 mM MOPS, 5 mM EGTA, 37.5 mM MgCl2, 1 mM DTT and 50 μM ATP. There was 6.25 ng/well mutant B-RAF and 7.5 ng/well MEK-1 in the final assay conditions. Compounds were serially diluted in assay buffer containing 1% DMSO and 20 μl of test compound at a concentration 3-fold more than the final concentration, and were added to a polypropylene V-well reaction plate. Vehicle control wells received buffer only with DMSO at equivalent concentrations to the test wells. […] These reaction plates were incubated at room temperature for 30 minutes. Capture of MEK-1 was initiated by transferring 50 μl of the reaction mixture to a Nunc Maxisorp™ microplate that is designed for non-specific protein capture. After 30 minute capture of MEK-1 at room temperature, this plate was washed with TBST (6×200 μL/well) to fully terminate the reaction. The plate was then blocked for 1 hour by the addition of 100 μl/well of Superblock™ in phosphate buffered saline (PBS) blocking reagent. Plate was again washed with TBST (6 times with 200 μl/well), followed by the addition of 70 μl/well of Upstate anti-phospho MEK ½ diluted 1:1000 in Pierce Superblock (PBS). After a 60 minute incubation, this plate was washed with TBST (6 times with 200 μl/well), and 70 μl of the secondary antibody (Pierce Alkaline Phosphatase tagged goat anti-rabbit) prepared at 1:4000 in Superblock, were added. After a 45 minute incubation at room temperature, the wells of the microplate were washed with TBST (6 times with 200 μl/well), and thereafter 100 μl/well of Attophos™ fluorescent alkaline phosphatase substrate was added according to the manufacturer's instructions (JBL Scientific). Fluorescence was read on a Perkin Elmer Envision multilabel reader, using the following filters: Excitation Filter: CFP430 nM, Emission Filter: Emission Filter 579 nM.

T1 sequence (P15056 whole entry V600E): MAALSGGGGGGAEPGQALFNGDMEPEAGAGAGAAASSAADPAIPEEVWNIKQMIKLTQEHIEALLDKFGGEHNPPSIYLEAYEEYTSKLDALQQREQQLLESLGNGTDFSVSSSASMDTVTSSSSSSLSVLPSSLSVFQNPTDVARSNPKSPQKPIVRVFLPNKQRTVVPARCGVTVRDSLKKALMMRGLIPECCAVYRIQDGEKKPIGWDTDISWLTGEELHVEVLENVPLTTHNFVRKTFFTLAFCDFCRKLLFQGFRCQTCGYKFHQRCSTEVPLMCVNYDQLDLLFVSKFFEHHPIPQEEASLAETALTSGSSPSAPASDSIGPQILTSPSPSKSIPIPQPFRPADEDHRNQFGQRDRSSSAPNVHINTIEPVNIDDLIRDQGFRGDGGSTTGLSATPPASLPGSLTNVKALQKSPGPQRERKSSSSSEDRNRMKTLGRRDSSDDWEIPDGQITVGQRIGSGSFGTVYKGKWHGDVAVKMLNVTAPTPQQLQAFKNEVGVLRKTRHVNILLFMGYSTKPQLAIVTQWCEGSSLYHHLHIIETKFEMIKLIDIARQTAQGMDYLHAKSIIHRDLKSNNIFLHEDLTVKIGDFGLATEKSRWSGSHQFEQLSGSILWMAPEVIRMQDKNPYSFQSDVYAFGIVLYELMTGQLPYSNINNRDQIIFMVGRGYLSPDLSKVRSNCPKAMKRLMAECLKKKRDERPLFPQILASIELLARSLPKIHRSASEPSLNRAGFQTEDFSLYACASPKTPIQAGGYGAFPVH

SMILES	GI50 (DLD-1) [nM]	GI50 (WM-266-4) [nM]	GI50 (SK-MEL-2) [nM]	GI50 (A375) [nM]	GI50 (RKO) [nM]	GI50 (SK-MEL-28) [nM]	EC50 (p-Erk (A375)) [nM]	IC50 (mutant B-RAF) [nM]	melting point [°C]
Cn1ccc(S(=O)(=O)N2CCC[C@@H](Nc3nccc(-c4c(-c5ccc(F)c(O)c5)nc5occn45)n3)C2)n1 [Compound 22, (R)-2-fluoro-5-(5-(2-(1-(1-methyl-1H-pyrazol-3-ylsulfonyl)piperidin-3-ylamino)pyrimidin-4-yl)imidazo[2,1-b]oxazol-6-yl)phenol]	5920	< 0.4	42.8	< 0.4	52	33	34	0.96	–
O=S(=O)(c1ccc(Cl)cc1)N1CCC(Nc2nccc(-c3c(-c4cccc(O)c4)nc4sccn34)n2)CC1 [Compound 7, 3-(5-(2-(1-(4-chlorophenylsulfonyl)piperidin-4-ylamino)pyrimidin-4-yl)imidazo[2,1-b]thiazol-6-yl)phenol]	5520	6	519	< 0.4	85	88	82	8	–
O=P(O)(O)Oc1cccc(-c2nc3sccn3c2-c2cccc(N[C@@H]3CCCN(S(=O)(=O)c4ccc(Cl)cc4)C3)c2)c1 (as salt: phosphate)	–	–	–	–	–	–	–	–	239 to 245
Cn1ccc(S(=O)(=O)N2CCC[C@@H](Nc3nccc(-c4c(-c5cccc(O)c5)nc5sccn45)n3)C2)n1 [Compound 14, (R)-3-(5-(2-(1-(1-methyl-1H-pyrazol-3-ylsulfonyl)piperidin-3-ylamino)pyrimidin-4-yl)imidazo[2,1-b]thiazol-6-yl)phenol]	3000	5	170	2	122	74	2	6	–
O=S(=O)(c1ccc(Cl)cc1)N1CCC[C@@H](Nc2nccc(-c3c(-c4cccc(O)c4)nc4occn34)n2)C1 [Compound 4, (R)-3-(5-(2-(1-(4-chlorophenylsulfonyl)piperidin-3-ylamino)pyrimidin-4-yl)imidazo[2,1-b]oxazol-6-yl)phenol]	15400	15	1800	0.54	1810	1120	35	10	–
O=S(=O)(C1CC1)N1CCC(Nc2nccc(-c3c(-c4cccc(O)c4)nc4occn34)n2)CC1 [Compound 11, 3-(5-(2-(1-(cyclopropylsulfonyl)piperidin-4-ylamino)pyrimidin-4-yl)imidazo[2,1-b]oxazol-6-yl)phenol]	13900	3	2040	< 0.4	323	555	53	48	–
O=S(=O)(c1ccc(F)cc1)N1CCC(Nc2nccc(-c3c(-c4cccc(O)c4)nc4occn34)n2)CC1 [Compound 9, 3-(5-(2-(1-(4-fluorophenylsulfonyl)piperidin-4-ylamino)pyrimidin-4-yl)imidazo[2,1-b]oxazol-6-yl)phenol]	1620	< 0.4	356	< 0.4	283	300	129	48	–
Cn1ccc(S(=O)(=O)N2CCC(Nc3nccc(-c4c(-c5cccc(O)c5)nc5occn45)n3)CC2)n1 [Compound 20, 3-(5-(2-(1-(1-methyl-1H-pyrazol-3-ylsulfonyl)piperidin-4-ylamino)pyrimidin-4-yl)imidazo[2,1-b]oxazol-6-yl)phenol]	9470	2	310	< 0.4	372	393	73	13	–
